This is an account of results in patent publication US7220822B2, “CD28 mimetics for blocking T cell mediated immune reactions” (The Ohio State University, priority 2000, dated 2007).

Square brackets hold non-standard residues; d marks the D form. Peptide text beside a SMILES is read from it.

Test [1] relates to CD4+ lymphocytes of immunized mice. Briefly: Apoptosis of CD4+ T cells in peptide-treated EAE mice (enzymatic labeling of nicked ends). In kind it is in vivo, mouse. As to conditions: mice treated on the day of immunization. Here is the method: This was done by quantifying the DNA strand breaks in CD4+ lymphocytes detected by enzymatic labeling of nicked ends. Cells incubated in DNAse served as positive control.

For test [2], the system named is CD4+ splenocytes from Vα4/Vβ8.2 TCR transgenic mice. In kind it is cell-based, mouse. As to conditions: 72 h. How it is done:
The in vitro effect of varying concentration of the CD 28 peptide mimetics on CD4+ lymph node cells and spleen cells from transgenic mice bearing the Vα 4 Vβ8.2 TCR specific for MBP Ac 1-11 was determined.
CD4+ T cells were purified from pooled peripheral lymph nodes (inguinal, axillary, brachial, cervical, popliteal), and mesenteric lymph nodes and spleen of 6–8 wk old Vα4/Vβ8.2 TCR transgenic mice by positive selection. Single cell suspensions were prepared by lympholyte M gradient, washed, counted and incubated with magnetic bead conjugated anti-mouse CD4 (L3T4) (Miltenyi Biotech Corporation) followed by positive selection using magnetic selection columns. Purity of the CD4^+ cells was greater than 90% as assessed by staining with FITC labeled anti-mouseVβ8.2 mAb (Pharmingen). During the selection process, T cells maintain a naïve phenotype with no evidence for T cell activation as measured by proliferation in culture. Purified CD4+ T-cells (5×10^4 cells/well) were cultured together with wild type splenocytes from B10.PL mice as APC's (10^5 cells/well) in RPMI 1640 containing 10% FCS, 25 mM HEPES, 2 mM L-glutamine, 50 U/ml penicillin, 50 μg/ml streptomycin, and 5×10–5 M 2-ME in round-bottom 96-well plates and MBP (40 μg/ml) or MBP NAc1-11 (10 μg/ml) or media only in the presence or absence of synthetic CD28 peptide analogues at different concentrations in triplicate wells for 72 h, including a final 18-h pulse with [^3H] thymidine. Cultures were harvested onto glass-fiber mats using a Skatron harvester (Skatron, Sterling, Va.) and were counted by liquid scintillation on LKB Betaplate (LKB, Rockville, Md.). The means of the triplicate were determined and the results are expressed as delta cpm (mean counts per minute of cultures with Ag-mean counts per minute of cultures with medium alone)±SD.

On to `CC[C@@H](C)[C@@H](NC(C)=O)C(=O)N[C@@H](C(=O)NCC(=O)N[C@H](CC(N)=O)C(=O)N[C@H](CO)C(=O)N[C@H](CCCNC(=N)N)C(=O)N[C@H](CCC(=O)O)C(=O)N[C@H](CC(N)=O)C(=O)N[C@H](CC(=O)O)C(=O)N[C@H](CC(C)C)C(=O)N[C@H](Cc1ccc(O)cc1)C(=O)N1CCC[C@@H]1C(=O)N1CCC[C@@H]1C(=O)N1CCC[C@@H]1C(=O)N[C@H](Cc1ccc(O)cc1)C(=O)N[C@H](CCSC)C(=O)N[C@H](Cc1ccccc1)C(=O)N[C@H](CCC(=O)O)C(=O)N[C@@H](C(=O)N[C@H](CCCCN)C(N)=O)[C@H](C)CC)[C@H](C)O` [RI CD28] (Ac-[dI][dT]G[dN][dS][dR][dE][dN][dD][dL][dY][dP][dP][dP][dY][dM][dF][dE][dI][dK]-NH2), for which the “percentage of apoptotic CD4+ T cells” value in test [1] is listed as 16%. In addition, the “maximum inhibition of proliferative response” value in test [2] is listed as 42%.
